This series can be described thus: xn = mol fraction of the nth substance listed. The note with it: 300 K, 101 kPa.

With `[Br-].[PH3+]CCCCCCCCCCCCCC(c1ccccc1)(c1ccccc1)c1ccccc1` + O, the electrical conductivity was 0.002 S/m (x2 = 0.503) and 0.0006 S/m (x2 = 0.603).

Turning to `CCCCCCCCCCCCCCCC[P+](c1ccccc1)(c1ccccc1)c1ccccc1.[Br-]` + O, the electrical conductivity turned out to be 0.0003 S/m (x2 = 0.198), 0.0003 S/m (x2 = 0.498) and 0.0004 S/m (x2 = 0.598).

In turn, `CCCCCCCCCCCCCCCC[P+](CCCC)(CCCC)CCCC.[Br-]` + O returned an electrical conductivity (x2 = 0.201) of 0.0004 S/m; an electrical conductivity (x2 = 0.302) of 0.0004 S/m; an electrical conductivity (x2 = 0.502) of 0.0004 S/m; an electrical conductivity (x2 = 0.603) of 0.0004 S/m; an electrical conductivity (x2 = 0.802) of 0.0004 S/m.
